ChEMBL document CHEMBL1201862, “PubChem BioAssay data set” (2004)
Calls of active or inactive are those of the source.

Columns and labels:
Danio rerio = test: In Vivo Angiogenesis Dose-Response Confirmation. [Related pubchem assays: 732 (Assay preceding this confirmatory assay.)]; type: functional, organism-based
[1] = M. tuberculosis growth inhibition, HTS (AID 449762); type: functional
Paired box protein Pax-8 = Paired box protein Pax-8 (Homo sapiens, UniProt Q06710); test: inhibitors of PAX8-driven TPO luciferase reporter, dose response, RMG-I cells, cherry-pick (AID 687027); type: functional, cell-based;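 further: luciferase reporter driven by Pax8 target thyroperoxidase promoter measured by SteadyGlo luminescence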
[2] = IGROV1 ovarian cancer cell cytotoxicity, dose response, PAX8 inhibitor project, plate reader, dry powder samples (AID 743043); type: functional, cell-based; conditions: IGROV-1
[3] = P. falciparum Dd2 growth inhibitors, dose response, SYBR Green, dry powder samples, set 9 (AID 1159568); type: functional, cell-based
[4] = NIH:OVCAR-3 ovarian cancer cell cytotoxicity, dose response, PAX8 inhibitor project, plate reader, dry powder samples (AID 743044); type: functional, cell-based
[5] = biological target: Heat shock protein HSP 90-alpha (Homo sapiens, UniProt P07900); type: functional, organism-based
[6] = growth suppression of PTEN-null colon cells, dose response, cell-based, HCT116 PTEN knockout (AID 1047); type: functional;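 further: HCT116 colon tumor cells with PTEN knocked out; cells exposed to compound for 60 hours before readout; potency for loss of cell viability measured by luminescence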
INS1 = test: beta cell apoptosis inhibitors, cytokine rescue, dose response, luminescence, retest (AID 449756); type: functional, cell-based; conditions: Rattus norvegicus;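 further: cell death triggered by IL-1 beta plus TNF-alpha plus IFN-gamma mixture; protective hits raise ATP signal compared with cytokine alone wells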
[7] = biological target: T1, Mannose-6-phosphate isomerase (Homo sapiens, UniProt P34949); test: human PMI inhibitors, high substrate, primary screen, biochemical, fluorescence intensity, high mannose 6-phosphate (AID 1220)
T1 sequence (P34949 whole entry): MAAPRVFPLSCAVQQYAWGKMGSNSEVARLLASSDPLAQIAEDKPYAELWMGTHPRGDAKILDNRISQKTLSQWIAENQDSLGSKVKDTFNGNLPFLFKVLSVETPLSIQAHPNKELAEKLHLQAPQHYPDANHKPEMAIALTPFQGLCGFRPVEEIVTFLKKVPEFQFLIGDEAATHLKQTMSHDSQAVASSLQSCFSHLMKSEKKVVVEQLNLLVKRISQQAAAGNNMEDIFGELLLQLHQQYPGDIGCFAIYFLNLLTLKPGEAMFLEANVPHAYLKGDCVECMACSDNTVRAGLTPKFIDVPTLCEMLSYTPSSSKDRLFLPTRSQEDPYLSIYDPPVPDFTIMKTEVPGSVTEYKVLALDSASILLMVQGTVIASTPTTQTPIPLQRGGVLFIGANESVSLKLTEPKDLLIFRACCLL

Large T antigen = Large T antigen (Simian virus 40, UniProt P03070); type: functional, Betapolyomavirus macacae;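 further: Confirmatory-stage PubChem screen for compounds that inhibit SV40 T antigen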
Galanin receptor type 2 = Galanin receptor type 2 (Homo sapiens, UniProt O43603); test: Dose Response cell-based high-throughput screening assay to identify agonists of galanin receptor 2 (GALR2). [Related pubchem assays: 864 ]; type: functional
[8] = growth suppression of beta-catenin-knockout colon cells, dose response, cell-based, HCT116, human colon tumor (AID 1045); type: functional;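 further: HCT116 colon tumor cells with beta catenin knocked out; cells exposed to compound for 60 hours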
[9] = HepG2 cell cytotoxicity, dose response, cytotoxicity control, plate reader, dry powder, set 6 (AID 743311); type: functional, cell-based
[10] = A549 cell cytotoxicity, dose response, cytotoxicity control, plate reader, dry powder, set 6 (AID 743312); type: functional, cell-based
cells = conditions: HEK293
[11] = CellTiter-Glo luminescent dose response of DLD-1 viability loss (AID 1117352); type: functional
[12] = cytotoxicity toward HT-29 cells – cell-based, CellTiter-Glo luminescence, IC50, dose response (AID 1117330); type: functional
[13] = HeLa 4N DNA content increase, dose response, cell-based, IC50 (AID 1117351); type: functional
[14] = Concentration-dependent survival of SW480 colon cancer line, luminescence detection with CellTiter-Glo, half-maximal inhibitory concentration (AID 1117338); type: functional
[15] = SNU-C1 cell viability reduction, dose response, CellTiter-Glo luminescence (AID 1117323); type: functional, cell-based
[16] = HeLa 2N DNA content increase, dose response, cell-based, IC50 (AID 1117349); type: functional
[17] = Dose-response inhibition of insulin secretion in a rat insulinoma line at 5 mM glucose (AID 1117331); type: functional, cell-based; conditions: INS-1E
[18] = cytotoxicity toward Colo320 cells – cell-based, CellTiter-Glo luminescence, IC50, dose response (AID 1117334); type: functional; conditions: COLO 320
[19] = RKO cell viability reduction, dose response, CellTiter-Glo luminescence (AID 1117322); type: functional
[20] = HCT116 cell viability decrease, GSK3B pretreatment – CellTiter-Glo, IC50, dose response (AID 1117339); type: functional; conditions: HCT-116

Sequence of Galanin receptor type 2 (O43603 whole entry): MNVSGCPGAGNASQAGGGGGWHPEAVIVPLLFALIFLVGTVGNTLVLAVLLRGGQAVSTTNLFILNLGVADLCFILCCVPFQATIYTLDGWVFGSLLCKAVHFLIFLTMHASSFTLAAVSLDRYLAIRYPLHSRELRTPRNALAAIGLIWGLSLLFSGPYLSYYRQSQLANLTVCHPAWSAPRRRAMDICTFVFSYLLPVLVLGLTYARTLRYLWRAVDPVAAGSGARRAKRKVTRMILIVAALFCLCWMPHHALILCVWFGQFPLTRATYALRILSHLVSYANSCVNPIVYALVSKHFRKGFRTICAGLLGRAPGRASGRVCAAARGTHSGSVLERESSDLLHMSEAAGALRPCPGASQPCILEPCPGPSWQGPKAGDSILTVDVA
Sequence of Large T antigen (P03070 whole entry): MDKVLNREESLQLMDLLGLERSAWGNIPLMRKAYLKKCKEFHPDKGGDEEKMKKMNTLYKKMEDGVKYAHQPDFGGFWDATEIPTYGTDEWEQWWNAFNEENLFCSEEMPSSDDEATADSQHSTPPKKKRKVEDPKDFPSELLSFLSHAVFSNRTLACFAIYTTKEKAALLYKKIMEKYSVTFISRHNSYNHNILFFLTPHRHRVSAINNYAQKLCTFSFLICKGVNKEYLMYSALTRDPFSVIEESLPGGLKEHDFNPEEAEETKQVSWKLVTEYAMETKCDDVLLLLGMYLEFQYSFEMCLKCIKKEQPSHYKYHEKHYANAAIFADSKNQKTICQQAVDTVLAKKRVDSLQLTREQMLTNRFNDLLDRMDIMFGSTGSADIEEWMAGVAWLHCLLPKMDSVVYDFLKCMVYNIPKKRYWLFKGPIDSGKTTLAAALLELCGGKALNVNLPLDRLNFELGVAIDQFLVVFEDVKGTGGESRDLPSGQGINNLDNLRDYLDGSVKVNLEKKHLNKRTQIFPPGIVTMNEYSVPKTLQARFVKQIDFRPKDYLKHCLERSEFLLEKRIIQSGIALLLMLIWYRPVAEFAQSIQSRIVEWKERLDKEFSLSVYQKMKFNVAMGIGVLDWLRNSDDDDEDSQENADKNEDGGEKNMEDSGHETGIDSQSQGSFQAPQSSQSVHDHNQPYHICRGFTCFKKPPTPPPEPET
Sequence of Paired box protein Pax-8 (Q06710 whole entry): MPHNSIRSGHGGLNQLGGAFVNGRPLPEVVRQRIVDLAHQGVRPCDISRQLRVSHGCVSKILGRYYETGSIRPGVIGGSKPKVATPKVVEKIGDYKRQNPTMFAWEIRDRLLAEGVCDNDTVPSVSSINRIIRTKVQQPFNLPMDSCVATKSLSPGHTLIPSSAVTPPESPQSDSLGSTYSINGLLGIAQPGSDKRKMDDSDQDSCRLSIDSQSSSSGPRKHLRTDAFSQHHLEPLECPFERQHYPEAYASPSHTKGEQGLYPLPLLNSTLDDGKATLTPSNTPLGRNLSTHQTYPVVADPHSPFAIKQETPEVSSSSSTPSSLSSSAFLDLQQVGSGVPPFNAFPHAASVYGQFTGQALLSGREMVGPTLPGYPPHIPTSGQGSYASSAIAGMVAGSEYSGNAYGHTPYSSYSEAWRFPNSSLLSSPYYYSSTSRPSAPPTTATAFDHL

O=C1Nc2ccccc2/C1=C1/Nc2ccc(Br)cc2/C1=N\O
IC50 (Danio rerio): > 10 µM (not active)

O=C(O)c1ccccc1C(=O)NNc1ccc(Cl)cc1Cl
IC50 [1]: > 100 µM (active)

O=C(Nc1ccccc1F)N1CCCCN2[C@@H](CO)[C@@H](c3ccc(/C=C/c4ccccc4)cc3)[C@@H]2C1
AC50 (Paired box protein Pax-8): 7.96 µM (active)
AC50 [2]: 29.1 µM (active)
AC50 [3]: 2.52 µM (active)
AC50 [4]: 10.6 µM (active)

CC1=C/C(=N\OS(=O)(=O)c2ccccc2)C(C(C)C)=CC1=O
AC50 [5]: 0.751 µM (active)
EC50 [6]: 2.93 µM (active)
AC50 (INS1): 3.88 µM (active)
IC50 [7]: 6.04 µM (active)
IC50 (Large T antigen): 48.2 µM (active)
EC50 (Galanin receptor type 2): > 55.7 µM (not active)
EC50 [8]: 3.13 µM (active)

Cc1ccc(C(C)C)c(OCCn2c(CO)nc3ccccc32)c1
AC50 [9]: 37.4 µM (active)
AC50 [10]: 38.5 µM (active)
AC50 (cells): 32.2 µM (active)

CC(=O)Oc1ccc(C2(c3ccc(OC(C)=O)cc3)Oc3ccccc3NC2=O)cc1 [BISOXATIN ACETATE]
IC50 [11]: 19.7 µM (inactive)
IC50 [12]: > 20 µM (inactive)
IC50 [13]: > 10 µM (inactive)
IC50 [14]: 9.19 µM (inactive)
IC50 [15]: > 20 µM (inactive)
IC50 [16]: > 10 µM (inactive)
IC50 [17]: > 33.3 µM (inactive)
IC50 [18]: > 20 µM (inactive)
IC50 [19]: 9.23 µM (inactive)
IC50 [20]: 3.26 µM (active)
